Results taken from PubChem BioAssay (NCI).
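A five-concentration, 48-hour dose response in 96-well plates underlies each endpoint, interpolated linearly between surrounding concentrations. The concentration for full growth arrest is given as TGI.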

Assays:
Experiment in all cases: DTP human tumour cell line panel, 48 h
786-0 renal = test system: 786-0 renal
A498 renal = test system: A498 renal
A549 NSCLC = test system: A549 NSCLC
ACHN renal = test system: ACHN renal
BT-549 breast = test system: BT-549 breast
CAKI-1 renal = test system: CAKI-1 renal
CCRF-CEM leukemia = test system: CCRF-CEM leukemia
COLO 205 colon = test system: COLO 205 colon
DU-145 prostate = test system: DU-145 prostate
EKVX NSCLC = test system: EKVX NSCLC
HCC-2998 colon = test system: HCC-2998 colon
HCT-116 colon = test system: HCT-116 colon
HCT-15 colon = test system: HCT-15 colon
HL-60(TB) leukemia = test system: HL-60(TB) leukemia
HOP-62 NSCLC = test system: HOP-62 NSCLC
HOP-92 NSCLC = test system: HOP-92 NSCLC
HS 578T breast = test system: HS 578T breast
HT29 colon = test system: HT29 colon
IGROV1 ovarian = test system: IGROV1 ovarian
K-562 leukemia = test system: K-562 leukemia
KM12 colon = test system: KM12 colon
LOX IMVI melanoma = test system: LOX IMVI melanoma
M14 melanoma = test system: M14 melanoma
MCF7 breast = test system: MCF7 breast
MDA-MB-231 breast = test system: MDA-MB-231 breast
MDA-MB-435 = test system: MDA-MB-435
MDA-N = test system: MDA-N
MOLT-4 leukemia = test system: MOLT-4 leukemia
NCI-H226 lung = test system: NCI-H226 lung
NCI-H23 lung = test system: NCI-H23 lung
NCI-H460 lung = test system: NCI-H460 lung
NCI-H522 lung = test system: NCI-H522 lung
NCI/ADR-RES ovarian = test system: NCI/ADR-RES ovarian
OVCAR-3 ovarian = test system: OVCAR-3 ovarian
OVCAR-4 ovarian = test system: OVCAR-4 ovarian
OVCAR-5 ovarian = test system: OVCAR-5 ovarian
OVCAR-8 ovarian = test system: OVCAR-8 ovarian
PC-3 prostate = test system: PC-3 prostate
RPMI-8226 leukemia = test system: RPMI-8226 leukemia
RXF 393 renal = test system: RXF 393 renal
SF-268 CNS = test system: SF-268 CNS
SF-295 CNS = test system: SF-295 CNS
SF-539 CNS = test system: SF-539 CNS
SK-MEL-2 melanoma = test system: SK-MEL-2 melanoma
SK-MEL-5 melanoma = test system: SK-MEL-5 melanoma
SK-OV-3 ovarian = test system: SK-OV-3 ovarian
SN12C renal = test system: SN12C renal
SNB-19 CNS = test system: SNB-19 CNS
SNB-75 CNS = test system: SNB-75 CNS
SW-620 colon = test system: SW-620 colon
T-47D breast = test system: T-47D breast
TK-10 renal = test system: TK-10 renal
U251 CNS = test system: U251 CNS
UACC-257 melanoma = test system: UACC-257 melanoma
UACC-62 melanoma = test system: UACC-62 melanoma
UO-31 renal = test system: UO-31 renal
MALME-3M melanoma = test system: MALME-3M melanoma
SK-MEL-28 melanoma = test system: SK-MEL-28 melanoma

Compound: NS(=O)(=O)c1ccc(NC(=S)/N=C/c2c(O)c3ccccc3oc2=O)cc1
- TGI (786-0 renal): > 100 µM
- TGI (A498 renal): 64.1 µM
- TGI (A549 NSCLC): > 100 µM
- TGI (ACHN renal): > 100 µM
- TGI (BT-549 breast): > 100 µM
- TGI (CAKI-1 renal): 62.4 µM
- TGI (CCRF-CEM leukemia): > 100 µM
- TGI (COLO 205 colon): > 100 µM
- TGI (DU-145 prostate): > 100 µM
- TGI (EKVX NSCLC): > 100 µM
- TGI (HCC-2998 colon): > 100 µM
- TGI (HCT-116 colon): > 100 µM
- TGI (HCT-15 colon): > 100 µM
- TGI (HL-60(TB) leukemia): > 100 µM
- TGI (HOP-62 NSCLC): > 100 µM
- TGI (HOP-92 NSCLC): 68.1 µM
- TGI (HS 578T breast): 99.6 µM
- TGI (HT29 colon): > 100 µM
- TGI (IGROV1 ovarian): 97.1 µM
- TGI (K-562 leukemia): > 100 µM
- TGI (KM12 colon): > 100 µM
- TGI (LOX IMVI melanoma): > 100 µM
- TGI (M14 melanoma): > 100 µM
- TGI (MCF7 breast): > 100 µM
- TGI (MDA-MB-231 breast): 65 µM
- TGI (MDA-MB-435): > 100 µM
- TGI (MDA-N): > 100 µM
- TGI (MOLT-4 leukemia): > 100 µM
- TGI (NCI-H226 lung): 61 µM
- TGI (NCI-H23 lung): > 100 µM
- TGI (NCI-H460 lung): > 100 µM
- TGI (NCI-H522 lung): 88.6 µM
- TGI (NCI/ADR-RES ovarian): > 100 µM
- TGI (OVCAR-3 ovarian): > 100 µM
- TGI (OVCAR-4 ovarian): > 100 µM
- TGI (OVCAR-5 ovarian): > 100 µM
- TGI (OVCAR-8 ovarian): > 100 µM
- TGI (PC-3 prostate): > 100 µM
- TGI (RPMI-8226 leukemia): > 100 µM
- TGI (RXF 393 renal): 80.9 µM
- TGI (SF-268 CNS): > 100 µM
- TGI (SF-295 CNS): > 100 µM
- TGI (SF-539 CNS): > 100 µM
- TGI (SK-MEL-2 melanoma): > 100 µM
- TGI (SK-MEL-5 melanoma): 96.1 µM
- TGI (SK-OV-3 ovarian): > 100 µM
- TGI (SN12C renal): > 100 µM
- TGI (SNB-19 CNS): 85.5 µM
- TGI (SNB-75 CNS): 53.3 µM
- TGI (SW-620 colon): > 100 µM
- TGI (T-47D breast): > 100 µM
- TGI (TK-10 renal): > 100 µM
- TGI (U251 CNS): > 100 µM
- TGI (UACC-257 melanoma): > 100 µM
- TGI (UACC-62 melanoma): > 100 µM
- TGI (UO-31 renal): 87.6 µM

Compound: CCOC(=O)[C@H]1O[C@@H]1C(=O)NC(CC(C)C)C(=O)NCCC(C)C (some centres undefined)
- TGI (786-0 renal): > 100 µM
- TGI (A498 renal): > 100 µM
- TGI (A549 NSCLC): > 100 µM
- TGI (BT-549 breast): > 100 µM
- TGI (CAKI-1 renal): > 100 µM
- TGI (CCRF-CEM leukemia): > 100 µM
- TGI (COLO 205 colon): > 100 µM
- TGI (DU-145 prostate): > 100 µM
- TGI (EKVX NSCLC): > 100 µM
- TGI (HCC-2998 colon): > 100 µM
- TGI (HCT-116 colon): > 100 µM
- TGI (HCT-15 colon): > 100 µM
- TGI (HOP-62 NSCLC): > 100 µM
- TGI (HOP-92 NSCLC): > 100 µM
- TGI (HS 578T breast): > 100 µM
- TGI (HT29 colon): > 100 µM
- TGI (IGROV1 ovarian): > 100 µM
- TGI (K-562 leukemia): > 100 µM
- TGI (KM12 colon): > 100 µM
- TGI (M14 melanoma): > 100 µM
- TGI (MALME-3M melanoma): > 100 µM
- TGI (MCF7 breast): > 100 µM
- TGI (MDA-MB-231 breast): > 100 µM
- TGI (MDA-MB-435): > 100 µM
- TGI (MDA-N): > 100 µM
- TGI (MOLT-4 leukemia): > 100 µM
- TGI (NCI-H226 lung): > 100 µM
- TGI (NCI-H23 lung): > 100 µM
- TGI (NCI-H460 lung): > 100 µM
- TGI (NCI-H522 lung): > 100 µM
- TGI (NCI/ADR-RES ovarian): > 100 µM
- TGI (OVCAR-3 ovarian): > 100 µM
- TGI (OVCAR-4 ovarian): > 100 µM
- TGI (OVCAR-5 ovarian): > 100 µM
- TGI (OVCAR-8 ovarian): > 100 µM
- TGI (PC-3 prostate): > 100 µM
- TGI (RPMI-8226 leukemia): > 100 µM
- TGI (SF-268 CNS): > 100 µM
- TGI (SF-295 CNS): > 100 µM
- TGI (SF-539 CNS): > 100 µM
- TGI (SK-MEL-28 melanoma): > 100 µM
- TGI (SK-MEL-5 melanoma): > 100 µM
- TGI (SK-OV-3 ovarian): > 100 µM
- TGI (SN12C renal): > 100 µM
- TGI (SNB-19 CNS): > 100 µM
- TGI (SNB-75 CNS): > 100 µM
- TGI (SW-620 colon): > 100 µM
- TGI (T-47D breast): > 100 µM
- TGI (U251 CNS): > 100 µM
- TGI (UACC-257 melanoma): > 100 µM
- TGI (UACC-62 melanoma): > 100 µM
- TGI (UO-31 renal): > 100 µM

Compound: OC1CCCN(C2(c3cccs3)CCCCC2)C1 (centres undefined)
- TGI (786-0 renal): > 100 µM
- TGI (A498 renal): > 100 µM
- TGI (ACHN renal): > 100 µM
- TGI (BT-549 breast): > 100 µM
- TGI (CAKI-1 renal): > 100 µM
- TGI (COLO 205 colon): > 100 µM
- TGI (DU-145 prostate): > 100 µM
- TGI (EKVX NSCLC): > 100 µM
- TGI (HCC-2998 colon): > 100 µM
- TGI (HCT-116 colon): > 100 µM
- TGI (HCT-15 colon): > 100 µM
- TGI (HL-60(TB) leukemia): > 100 µM
- TGI (HOP-62 NSCLC): > 100 µM
- TGI (HOP-92 NSCLC): > 100 µM
- TGI (HS 578T breast): > 100 µM
- TGI (HT29 colon): > 100 µM
- TGI (IGROV1 ovarian): > 100 µM
- TGI (K-562 leukemia): > 100 µM
- TGI (KM12 colon): > 100 µM
- TGI (LOX IMVI melanoma): > 100 µM
- TGI (MALME-3M melanoma): > 100 µM
- TGI (MCF7 breast): > 100 µM
- TGI (MDA-MB-231 breast): > 100 µM
- TGI (MDA-MB-435): > 100 µM
- TGI (MDA-N): > 100 µM
- TGI (MOLT-4 leukemia): > 100 µM
- TGI (NCI-H23 lung): > 100 µM
- TGI (NCI-H460 lung): > 100 µM
- TGI (NCI-H522 lung): > 100 µM
- TGI (NCI/ADR-RES ovarian): > 100 µM
- TGI (OVCAR-3 ovarian): > 100 µM
- TGI (OVCAR-4 ovarian): > 100 µM
- TGI (OVCAR-5 ovarian): > 100 µM
- TGI (OVCAR-8 ovarian): > 100 µM
- TGI (PC-3 prostate): > 100 µM
- TGI (RPMI-8226 leukemia): > 100 µM
- TGI (RXF 393 renal): > 100 µM
- TGI (SF-268 CNS): > 100 µM
- TGI (SF-295 CNS): > 100 µM
- TGI (SK-MEL-2 melanoma): > 100 µM
- TGI (SK-MEL-28 melanoma): > 100 µM
- TGI (SK-MEL-5 melanoma): > 100 µM
- TGI (SK-OV-3 ovarian): > 100 µM
- TGI (SN12C renal): > 100 µM
- TGI (SNB-75 CNS): > 100 µM
- TGI (SW-620 colon): > 100 µM
- TGI (T-47D breast): > 100 µM
- TGI (TK-10 renal): > 100 µM
- TGI (U251 CNS): > 100 µM
- TGI (UACC-257 melanoma): > 100 µM
- TGI (UACC-62 melanoma): > 100 µM
